Tested on: human prostate cancer 22Rv-1 cell subcutaneous xenograft
Assay: Pharmacodynamic assessment, 22Rv-1 xenograft model (Example 17)
Format: in vivo, BALB/c nude male mouse
Details: for Safety: 2.87 / 2.88 mg/kg i.v biw×3w
Description: Objective: Pre-clinical anti-tumor effect assessment of CR202 series of compounds in BALB/c nude male mouse model with human prostate cancer 22Rv-1 cell subcutaneous xenograft.
Procedures: 22Rv-1 (CL-00458) cells were cultured in a PRMI1640 medium containing 10% fetal bovine serum. The 22Rv-1 cells in the exponential phase were collected and resuspended in PBS to an appropriate concentration for subcutaneous tumor grafting in nude mice. The mice were subcutaneously grafted at the right back with 1×10^7 22Rv-1 cells, which were resuspended in a mixture of PBS and matrigel (1:1, 0.1 mL/mouse). The growth of the tumors was observed periodically. When the mean volume of the tumors reached 100-150 mm^3, the mice were randomized according to the tumor size. After the administration, the routine monitoring included the effect on tumor growth and the effect of treatment on the normal behavior of the animals, specifically the activity, food and water intake, weight gain or loss, the eyes, the hair, and other abnormal conditions. Clinical symptoms observed during the study were recorded in the raw data. After the administration was started, the body weight and tumor size of the mice were measured periodically. The tumor volume was calculated using the following formula: V=1/2×(a×b^2), where a and b denote the long diameter and short diameter of the tumor, respectively.

[1] = 2.88 mg/kg i.v BIW×3, day 29 after grouping

Row | Structure (SMILES) | Mean tumor volume [1] [mm^3] | TGI [1] [%] | Safety
1 | CCCOCCOCCOCCO[Si](Oc1ccc(COC(=O)N(CCOCCC#Cc2cccc3c2CN(C2CCC(=O)NC2=O)C3=O)[C@H]2CC[C@@H](n3cc(-c4ccc(Cc5ncc6c(n5)N(C5CCCC5)[C@H](CC)C(=O)N6C)c(OC)c4)nn3)CC2)cc1)(C(C)C)C(C)C (stereo partly shown) [CR202HT] | 690.37 | 58.19 | good safety
2 | CC[C@@H]1C(=O)N(C)c2cnc(Nc3ccc(-c4cn([C@H]5CC[C@@H](N(CCOCCC#Cc6cccc7c6CN(C6CCC(=O)NC6=O)C7=O)C(=O)OCc6ccc(OP(=O)(O)O)c(C(=O)NCCOCCOCCOCCn7cc(C[C@H](NC(=O)[C@H](CCCCN)NC(=O)[C@H](CC(=O)O)NC(=O)[C@H](CC(=O)O)NC(=O)Cc8ccc(CNC(=O)NCCCC[C@H](NC(=O)N[C@@H](CCC(=O)O)C(=O)O)C(=O)O)cc8)C(=O)N[C@@H](CCCCNC(=O)CC[C@H](NC(=O)c8ccc(NCc9cnc%10[nH]c(N)nc(=O)c%10n9)cc8)C(=O)O)C(N)=O)nn7)c6)CC5)nn4)cc3OC)nc2N1C1CCCC1 (stereo partly shown) [CR202LB] |  |  | good safety

Source: patent US20260007756A1, “COMPOUND AND USE THEREOF” (COHERENT BIOPHARMA (SUZHOU) LIMITED, priority 2022, published 2026)
